In article PMC9963398, “Discovery of New Quinolone-Based Diarylamides as Potent B-RAF^V600E/C-RAF Kinase Inhibitors Endowed with Promising In Vitro Anticancer Activity” (International Journal of Molecular Sciences, 2023):

Columns and labels:
[1] = test system: 786-0; test: NCI-60 five-dose SRB assay; format: cell-based; settings: Homo sapiens; 786-0, Renal cancer, five-dose test
In short: (§1)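 Following the NCI standard screening protocol, the full panel of 60 human cancer cell lines was assessed by sulforhodamine B assay at the Institute.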

[2] = test system: A498; test: NCI-60 five-dose SRB assay; format: cell-based; settings: Homo sapiens; A498, Renal cancer, five-dose test
In short: as §1

[3] = test system: CCRF-CEM; test: NCI-60 five-dose SRB assay; format: cell-based; settings: Homo sapiens, Leukemia, five-dose test
In short: as §1

[4] = test system: COLO 205; test: NCI-60 five-dose SRB assay; format: cell-based; settings: Homo sapiens; COLO 205, Colon cancer, five-dose test
In short: as §1

[5] = test system: EKVX; test: NCI-60 five-dose SRB assay; format: cell-based; settings: Homo sapiens, NSCL cancer, five-dose test
In short: as §1

[6] = test system: HCC-2998; test: NCI-60 five-dose SRB assay; format: cell-based; settings: Homo sapiens; HCC-2998, Colon cancer, five-dose test
In short: as §1

[7] = test system: NCI-H23; test: NCI-60 five-dose SRB assay; format: cell-based; settings: Homo sapiens; NCI-H23, NSCL cancer, five-dose test
In short: as §1

[8] = test system: NCI-H460; test: NCI-60 five-dose SRB assay; format: cell-based; settings: Homo sapiens; NCI-H460, NSCL cancer, five-dose test
In short: as §1

[9] = test system: OVCAR-3; test: NCI-60 five-dose SRB assay; format: cell-based; settings: Homo sapiens; OVCAR-3, Ovarian cancer, five-dose test
In short: as §1

[10] = test system: OVCAR-4; test: NCI-60 five-dose SRB assay; format: cell-based; settings: Homo sapiens; OVCAR-4, Ovarian cancer, five-dose test
In short: as §1

[11] = test system: OVCAR-5; test: NCI-60 five-dose SRB assay; format: cell-based; settings: Homo sapiens; OVCAR-5, Ovarian cancer, five-dose test
In short: as §1

[12] = test system: OVCAR-8; test: NCI-60 five-dose SRB assay; format: cell-based; settings: Homo sapiens; OVCAR-8, Ovarian cancer, five-dose test
In short: as §1

[13] = test system: RXF 393; test: NCI-60 five-dose SRB assay; format: cell-based; settings: Homo sapiens; RXF 393, Renal cancer, five-dose test
In short: as §1

[14] = test system: SK-MEL-28; test: NCI-60 five-dose SRB assay; format: cell-based; settings: Homo sapiens; SK-MEL-28, Melanoma, five-dose test
In short: as §1

[15] = test system: SK-OV-3; test: NCI-60 five-dose SRB assay; format: cell-based; settings: Homo sapiens; SK-OV-3, Ovarian cancer, five-dose test
In short: as §1

[16] = test system: SN12C; test: NCI-60 five-dose SRB assay; format: cell-based; settings: Homo sapiens, Renal cancer, five-dose test
In short: as §1

[17] = test system: SNB-75; test: NCI-60 five-dose SRB assay; format: cell-based; settings: Homo sapiens; SNB-75, CNS cancer, five-dose test
In short: as §1

[18] = test system: U251; test: NCI-60 five-dose SRB assay; format: cell-based; settings: Homo sapiens, U-251; U251, CNS cancer, five-dose test
In short: as §1

[19] = test system: UACC-257; test: NCI-60 five-dose SRB assay; format: cell-based; settings: Homo sapiens; UACC-257, Melanoma, five-dose test
In short: as §1

[20] = test system: NCI/ADR-RES; test: NCI-60 five-dose SRB assay; format: cell-based; settings: Homo sapiens, Ovarian cancer, five-dose test
In short: as §1

[21] = test system: NCI-60 human cancer cell lines; test: NCI-60 single dose (10 µM) testing; format: cell-based; settings: single dose 10 µM
Procedure: Encouraged by the promising results in the cell-free assay, the antiproliferative activity of all final compounds was evaluated by the National Cancer Institute (NCI) in a single dose of 10 µM over a library of 60 human cancer cell lines representing nine cancer types; leukemia, non-small cell lung (NSCL), colon, central nervous system (CNS), melanoma, ovarian, renal, prostate, and breast cancer.

[22] = test system: NCI-60 human tumor cell lines; test: NCI-60 five-dose testing, ranges over panel or subpanel; format: cell-based; settings: for GI50: Homo sapiens
Procedure: The anticancer screening of target compounds over a full panel of 60 human cancer cell lines was carried out using Sulforhodamine B (SRB) assay at the National Cancer Institute (NCI), Bethesda, Maryland, USA, employing the standard protocol.

[23] = biological target: T1, B-RAF^V600K (Homo sapiens, UniProt P15056, V600K); test: HotSpot kinase assay (RBC), B-RAF^V600K; format: biochemical; settings: 10 µM ATP
T1 construct: purchased Reaction Biology Corporation (RBC), Kinase HotSpot service
T1 sequence (P15056 whole entry V600K): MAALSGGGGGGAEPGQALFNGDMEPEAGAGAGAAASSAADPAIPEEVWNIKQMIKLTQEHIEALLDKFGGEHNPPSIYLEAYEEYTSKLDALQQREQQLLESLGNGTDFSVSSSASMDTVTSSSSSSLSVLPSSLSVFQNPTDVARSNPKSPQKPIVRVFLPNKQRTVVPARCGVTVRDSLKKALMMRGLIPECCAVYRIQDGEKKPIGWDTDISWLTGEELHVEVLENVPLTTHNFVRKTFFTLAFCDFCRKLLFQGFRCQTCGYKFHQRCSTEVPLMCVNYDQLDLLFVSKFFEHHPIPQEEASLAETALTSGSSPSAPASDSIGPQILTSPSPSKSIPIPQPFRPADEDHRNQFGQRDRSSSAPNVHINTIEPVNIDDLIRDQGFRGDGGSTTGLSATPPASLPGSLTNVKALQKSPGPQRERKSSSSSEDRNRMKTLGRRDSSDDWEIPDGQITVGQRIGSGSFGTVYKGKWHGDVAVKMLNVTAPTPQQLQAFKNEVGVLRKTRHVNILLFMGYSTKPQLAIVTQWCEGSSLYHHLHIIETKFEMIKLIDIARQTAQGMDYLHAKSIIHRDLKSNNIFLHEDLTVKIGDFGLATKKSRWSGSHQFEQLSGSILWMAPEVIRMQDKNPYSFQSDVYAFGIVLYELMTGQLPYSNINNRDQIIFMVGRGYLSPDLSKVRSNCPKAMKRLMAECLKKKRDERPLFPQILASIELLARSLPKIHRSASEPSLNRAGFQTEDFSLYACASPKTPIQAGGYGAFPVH
Procedure: To gain insight into the inhibitory mode of this new array of quinolines, 18a was tested at 1 µM concentration of ATP to compare it with its IC50 at 10 µM (Table 2).

[24] = MALME-3M, MDA-MB-435, SK-MEL-2, and UACC-62
[25] = melanoma LOX IMVI, SK-MEL-28, and SK-MEL-5
[26] = NSCL cell lines, range over lines
[27] = colon cancer cell lines, range over lines

With `COc1ccc2nc(Nc3cccc(NC(=O)c4ccc(CN5CCN(C)CC5)c(C(F)(F)F)c4)c3)ccc2c1` [Compound 16a, N-(3-((6-methoxyquinolin-2-yl)amino)phenyl)-4-((4-methylpiperazin-1-yl)methyl)-3-(trifluoromethyl)benzamide] the GI50 [1] was 5 µM, the GI50 [2] was 7.35 µM and the GI50 [3] was 2.15 µM. The GI50 [4] was 5.78 µM, the GI50 [5] was 4.53 µM and the GI50 [6] was 5.25 µM. The GI50 [7] was 5.06 µM, the GI50 [8] was 1.88 µM and the GI50 [9] was 5.89 µM. It also gave a GI50 [10] of 4.32 µM, a GI50 [11] of 6.1 µM and a GI50 [12] of 5.82 µM. It also gave a GI50 [13] of 1.75 µM, a GI50 [14] of 5.33 µM and a GI50 [15] of 5.99 µM. The GI50 [16] was 5.49 µM, the GI50 [17] was 0.684 µM and the GI50 [18] was 3.77 µM. The GI50 [19] was 4.35 µM.

`CN1CCN(Cc2ccc(C(=O)Nc3cccc(Nc4ccc5c(O)cccc5n4)c3)cc2C(F)(F)F)CC1` [Compound 17a, N-(3-((5-hydroxyquinolin-2-yl)amino)phenyl)-4-((4-methylpiperazin-1-yl)methyl)-3-(trifluoromethyl)benzamide] was tested, and the GI50 [1] was 2.11 µM, the GI50 [2] was 17.5 µM and the GI50 [3] was 2.91 µM. The GI50 [4] was 1.99 µM, the GI50 [5] was 3.75 µM and the GI50 [6] was 1.89 µM. The GI50 [7] was 2.26 µM, the GI50 [8] was 2.19 µM and the GI50 [20] was 3.45 µM. For the same molecule, the GI50 [9] was 3.1 µM, the GI50 [10] was 7.39 µM and the GI50 [11] was 3.24 µM. The GI50 [12] was 3.56 µM, the GI50 [13] was 1.66 µM and the GI50 [14] was 1.77 µM. The GI50 [15] was 14.4 µM, the GI50 [16] was 2.34 µM and the GI50 [17] was 1.85 µM. The GI50 [18] was 2.38 µM, the GI50 [19] was 1.92 µM and the growth percent [21, 24] was “less than -90”. The growth percent [21, 25] was −100 and the GI50 ([22]; MOLT-4, all leukemia cell lines, except MOLT-4) was > 2 µM.

For `CN1CCN(Cc2ccc(C(=O)Nc3cccc(Nc4ccc5cc(O)ccc5n4)c3)cc2C(F)(F)F)CC1` [Compound 18a, N-(3-((6-hydroxyquinolin-2-yl)amino)phenyl)-4-((4-methylpiperazin-1-yl)methyl)-3-(trifluoromethyl)benzamide], the IC50 [23] was < 0.00508 µM, the GI50 [1] was 3.13 µM and the GI50 [2] was 22.5 µM. The GI50 [3] was 3.48 µM, the GI50 [4] was 10.2 µM and the GI50 [5] was 14.2 µM. The GI50 [6] was 2.39 µM, the GI50 [7] was 13.9 µM and the GI50 [8] was 3.84 µM. It also gave a GI50 [9] of 11.2 µM, a GI50 [10] of 11.2 µM and a GI50 [11] of 14.2 µM. For the same molecule, the GI50 [12] was 13.2 µM, the GI50 [13] was 3.55 µM and the GI50 [14] was 1.79 µM. It also gave a GI50 [15] of 16.5 µM, a GI50 [16] of 14.1 µM and a GI50 [17] of 0.656 µM. The GI50 [18] was 2.17 µM, the GI50 [19] was 7.35 µM and the growth percent [21, 24] was “less than -90”. The growth percent [21, 25] was −100, the GI50 ([22]; LOX IMVI, MALME-3M, and SK-MEL-28) was 1.59 to 1.79 µM and the GI50 [22, 26] was 3.39 to 17.8 µM. The GI50 [22, 27] was 2.09 to 18.5 µM and the “GI50 increase relative to 17a” value ([22]; other melanoma cell lines) was 1.37–9.11 fold.

`CN1CCCN(Cc2ccc(C(=O)Nc3cccc(Nc4ccc5cc(O)ccc5n4)c3)cc2C(F)(F)F)CC1` [Compound 18b, N-(3-((6-hydroxyquinolin-2-yl)amino)phenyl)-4-((4-methyl-1,4-diazepan-1-yl)methyl)-3-(trifluoromethyl)benzamide] was tested, and the GI50 [1] was 16 µM, the GI50 [2] was 17.6 µM and the GI50 [3] was 4.94 µM. For the same molecule, the GI50 [4] was 18.5 µM, the GI50 [5] was 16 µM and the GI50 [6] was 16.5 µM. It also gave a GI50 [7] of 16.8 µM, a GI50 [8] of 18 µM and a GI50 [9] of 16.3 µM. The GI50 [10] was 15 µM, the GI50 [11] was 15.3 µM and the GI50 [12] was 18.9 µM. The GI50 [13] was 12.5 µM, the GI50 [14] was 13.9 µM and the GI50 [15] was 17.6 µM. It also gave a GI50 [16] of 17.3 µM, a GI50 [17] of 1.17 µM and a GI50 [18] of 14.8 µM. For the same molecule, the GI50 [19] was 14.7 µM, the “effect on cell growth” value ([21]; LOX IMVI) was “lethal effect” and the growth percent ([21]; melanoma SK-MEL-29, SK-MEL-5, and UACC-62) was “under −90%”. For the same molecule, the GI50 [22, 26] was 3.39 to 17.8 µM, the GI50 [22, 27] was 2.09 to 18.5 µM and the GI50 ([22]; melanoma cell lines, range over lines) was 10.4 to 17.2 µM.
